ChEMBL document CHEMBL2057077, “Exploration of pipecolate sulfonamides as binders of the FK506-binding proteins 51 and 52” (J Med Chem, 2012)

Legend:
[1] = target: T1, Peptidyl-prolyl cis-trans isomerase FKBP4 (Homo sapiens, UniProt Q02790); experiment: Binding affinity to FKBP52 FK1 domain by competitive fluorescence polarization assay
T1 sequence (Q02790 whole entry): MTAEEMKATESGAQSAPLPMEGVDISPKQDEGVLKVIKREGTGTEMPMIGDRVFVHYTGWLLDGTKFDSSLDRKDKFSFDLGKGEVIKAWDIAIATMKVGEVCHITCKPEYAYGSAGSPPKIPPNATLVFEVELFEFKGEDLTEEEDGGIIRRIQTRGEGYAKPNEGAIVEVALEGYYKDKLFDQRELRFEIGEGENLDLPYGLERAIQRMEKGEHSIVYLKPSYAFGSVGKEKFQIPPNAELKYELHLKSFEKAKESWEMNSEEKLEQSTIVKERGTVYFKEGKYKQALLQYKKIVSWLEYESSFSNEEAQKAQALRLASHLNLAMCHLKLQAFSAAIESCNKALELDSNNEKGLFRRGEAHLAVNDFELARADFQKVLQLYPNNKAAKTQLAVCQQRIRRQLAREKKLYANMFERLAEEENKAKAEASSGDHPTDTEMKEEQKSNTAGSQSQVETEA

[2] = target: T2, Peptidyl-prolyl cis-trans isomerase FKBP5 (Homo sapiens, UniProt Q13451); experiment: Binding affinity to FKBP51 FK1 domain by competitive fluorescence polarization assay
T2 sequence (Q13451 whole entry): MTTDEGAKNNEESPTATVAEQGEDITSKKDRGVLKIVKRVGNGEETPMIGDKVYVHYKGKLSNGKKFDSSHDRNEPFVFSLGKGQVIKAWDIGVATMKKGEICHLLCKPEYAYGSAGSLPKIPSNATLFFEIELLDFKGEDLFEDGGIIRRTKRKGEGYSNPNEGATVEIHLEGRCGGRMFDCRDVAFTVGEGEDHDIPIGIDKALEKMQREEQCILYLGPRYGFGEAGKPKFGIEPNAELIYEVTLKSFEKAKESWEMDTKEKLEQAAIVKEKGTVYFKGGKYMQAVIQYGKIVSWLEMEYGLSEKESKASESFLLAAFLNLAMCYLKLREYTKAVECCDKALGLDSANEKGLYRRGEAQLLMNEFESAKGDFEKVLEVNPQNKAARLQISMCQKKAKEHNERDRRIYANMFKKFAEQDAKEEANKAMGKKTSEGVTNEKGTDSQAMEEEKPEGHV

[3] = target: Peptidyl-prolyl cis-trans isomerase FKBP1A (Homo sapiens, UniProt P62942); experiment: Binding affinity to FKBP12 by competitive fluorescence polarization assay
Chain of Peptidyl-prolyl cis-trans isomerase FKBP1A (P62942 whole entry): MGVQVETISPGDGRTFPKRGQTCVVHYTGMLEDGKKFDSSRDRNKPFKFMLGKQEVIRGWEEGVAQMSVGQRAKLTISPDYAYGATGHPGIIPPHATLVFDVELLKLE

Compound | IC50 ([1]; read-out: IC50) [µM] | IC50 ([2]; read-out: IC50) [µM] | IC50 ([3]; read-out: IC50) [µM] | IC50 [1] | IC50 [2] | IC50 [3]
COC(=O)c1cc(C(=O)OC)cc(S(=O)(=O)N2CCCC[C@H]2C(=O)O[C@H](CCc2ccc(OC)c(OC)c2)c2cccc(OCC(=O)O)c2)c1 | > 100 | > 100 | 4.5 | – | – | –
COc1ccc(CC[C@@H](OC(=O)[C@@H]2CCCCN2S(=O)(=O)c2ccc(-c3ncccn3)cc2)c2cccc(OCC(=O)O)c2)cc1OC | > 100 | – | 1.8 | – | – | –
COc1ccc(CC[C@@H](OC(=O)[C@@H]2CCCCN2S(=O)(=O)c2cccc(Cl)c2)c2cccc(OCC(=O)O)c2)cc1OC | – | – | 1.2 | – | – | –
COc1ccc(CC[C@@H](OC(=O)[C@@H]2CCCCN2S(=O)(=O)c2ccc3ncsc3c2)c2cccc(OCC(=O)O)c2)cc1OC | 32.5 | 11.6 | 1.1 | – | – | –
COc1ccc(CC[C@@H](OC(=O)[C@@H]2CCCCN2S(=O)(=O)c2ccoc2)c2cccc(OCC(=O)O)c2)cc1OC | > 100 | > 100 | 10.1 | – | – | –
COc1ccc(CC[C@@H](OC(=O)[C@@H]2CCCCN2S(=O)(=O)c2cc3ccccc3s2)c2cccc(OCC(=O)O)c2)cc1OC | > 100 | – | 4.6 | – | – | –
COc1ccc(CC[C@@H](OC(=O)[C@@H]2CCCCN2S(=O)(=O)c2cccc(C#N)c2)c2cccc(OCC(=O)O)c2)cc1OC | 69.9 | 28.5 | 3.8 | – | – | –
COc1ccc(CC[C@@H](OC(=O)[C@@H]2CCCCN2S(=O)(=O)c2cccc([N+](=O)[O-])c2)c2cccc(OCC(=O)O)c2)cc1OC | > 100 | 47.2 | 1.9 | – | – | –
COc1ccc(CC[C@@H](OC(=O)[C@@H]2CCCCN2S(=O)(=O)c2cccc(N)c2)c2cccc(OCC(=O)O)c2)cc1OC | > 100 | 45.4 | 1.9 | – | – | –
COc1ccc(CC[C@@H](OC(=O)[C@@H]2CCCCN2S(=O)(=O)c2cccc(-c3ccnc(C)n3)c2)c2cccc(OCC(=O)O)c2)cc1OC | > 100 | > 100 | 8.1 | – | – | –
COc1ccc(CC[C@@H](OC(=O)[C@@H]2CCCCN2S(=O)(=O)c2cccc(-c3ccncn3)c2)c2cccc(OCC(=O)O)c2)cc1OC | > 100 | > 100 | 9.1 | – | – | –
COc1ccc(CC[C@@H](OC(=O)[C@@H]2CCCCN2S(=O)(=O)c2cccc(F)c2)c2cccc(OCC(=O)O)c2)cc1OC | 84.5 | 54 | 1.09 | – | – | –
COc1ccc(CC[C@@H](OC(=O)[C@@H]2CCCCN2S(=O)(=O)c2cccc(Br)c2)c2cccc(OCC(=O)O)c2)cc1OC | 15.7 | 15.8 | 0.32 | – | – | –
COc1ccc(CC[C@@H](OC(=O)[C@@H]2CCCCN2S(=O)(=O)c2cc(Cl)cc(Cl)c2)c2cccc(OCC(=O)O)c2)cc1OC | – | – | 0.8 | – | – | –
COc1ccc(CC[C@@H](OC(=O)[C@@H]2CCCCN2S(=O)(=O)c2ccc(Cl)c(Cl)c2)c2cccc(OCC(=O)O)c2)cc1OC | > 100 | > 100 | 6.1 | – | – | –
COc1ccc(CC[C@@H](OC(=O)[C@@H]2CCCCN2S(=O)(=O)c2ccc(OC)c(OC)c2)c2cccc(OCC(=O)O)c2)cc1OC | > 100 | > 100 | 7.6 | – | – | –
COc1ccc(S(=O)(=O)N2CCCC[C@H]2C(=O)O[C@H](CCc2ccc(OC)c(OC)c2)c2cccc(OCC(=O)O)c2)cc1Cl | 40.3 | 29.6 | 0.6 | – | – | –
COc1ccc(CC[C@@H](OC(=O)[C@@H]2CCCCN2S(=O)(=O)c2cc(F)cc(F)c2)c2cccc(OCC(=O)O)c2)cc1OC | – | 88.2 | 1 | – | – | –
COc1ccc(CC[C@@H](OC(=O)[C@@H]2CCCCN2S(=O)(=O)c2cc(C(F)(F)F)cc(C(F)(F)F)c2)c2cccc(OCC(=O)O)c2)cc1OC | > 100 | > 100 | 5.1 | – | – | –
COc1ccc(CC[C@@H](OC(=O)[C@@H]2CCCCN2S(=O)(=O)c2cc(Br)cc(C(F)(F)F)c2)c2cccc(OCC(=O)O)c2)cc1OC | > 100 | > 100 | 2.4 | – | – | –
COc1ccc(CC[C@@H](OC(=O)[C@@H]2CCCCN2S(=O)(=O)c2cc(Cl)c(O)c(Cl)c2)c2cccc(OCC(=O)O)c2)cc1OC | 20.3 | 6.2 | 0.67 | – | – | –

Compound | IC50 ([1]; read-out: IC50) [µM] | IC50 ([2]; read-out: IC50) [µM] | IC50 ([3]; read-out: IC50) [µM] | IC50 [1] | IC50 [2] | IC50 [3]
COc1ccc(CC[C@@H](OC(=O)[C@@H]2CCCCN2S(=O)(=O)c2cc(Cl)c(OC)c(Cl)c2)c2cccc(OCC(=O)O)c2)cc1OC | – | – | 0.23 | – | – | –
COc1ccc(CC[C@@H](OC(=O)[C@@H]2CCCCN2S(=O)(=O)c2cc(Cl)c(NC(C)=O)c(Cl)c2)c2cccc(OCC(=O)O)c2)cc1OC | 20.5 | 16.1 | 1.18 | – | – | –
COc1ccc(CC[C@@H](OC(=O)[C@@H]2CCCCN2S(=O)(=O)c2cc(OC)c(OC)c(C(=O)O)c2)c2cccc(OCC(=O)O)c2)cc1OC | – | – | – | Not Active | Not Active | Not Active
COc1ccc(CC[C@@H](OC(=O)[C@@H]2CCCCN2S(=O)(=O)c2cc3c(c([N+](=O)[O-])c2)OCC3)c2cccc(OCC(=O)O)c2)cc1OC | – | – | 1.5 | – | – | –
COc1ccc(CC[C@@H](OC(=O)[C@@H]2CCCCN2S(=O)(=O)c2cc(N)c3c(c2)CCO3)c2cccc(OCC(=O)O)c2)cc1OC | > 100 | > 100 | 2.57 | – | – | –
COc1ccc(CC[C@@H](OC(=O)[C@@H]2CCCCN2S(=O)(=O)c2ccc3nc(C)sc3c2)c2cccc(OCC(=O)O)c2)cc1OC | – | – | 1.2 | – | – | –
COc1ccc(CC[C@@H](OC(=O)[C@@H]2CCCCN2S(=O)(=O)c2ccc3[nH]c(=O)sc3c2)c2cccc(OCC(=O)O)c2)cc1OC | – | – | 0.021 | – | – | –
COc1ccc(CC[C@@H](OC(=O)[C@@H]2CCCCN2S(=O)(=O)c2ccc3c(c2)CC(=O)N3)c2cccc(OCC(=O)O)c2)cc1OC | > 100 | > 100 | 0.66 | – | – | –
COc1ccc(CC[C@@H](OC(=O)[C@@H]2CCCCN2S(=O)(=O)c2ccc3[nH]c(=O)oc3c2)c2cccc(OCC(=O)O)c2)cc1OC | > 100 | > 100 | 0.75 | – | – | –
COc1ccc(OCCOC(=O)[C@@H]2CCCCN2S(=O)(=O)c2cc(Cl)cc(Cl)c2)cc1OC | > 100 | > 100 | > 100 | – | – | –
COc1ccc(OCCOC(=O)[C@@H]2CCCCN2S(=O)(=O)c2ccc3ncsc3c2)cc1OC | > 100 | 66.3 | 0.2 | – | – | –
COc1ccc(CC[C@@H](OC(=O)[C@@H]2CCCCN2S(=O)(=O)c2cc(Cl)cc(Cl)c2)c2cccc(OCCN3CCOCC3)c2)cc1OC | > 50 | > 50 | > 50 | – | – | –
COc1ccc(CC[C@@H](OC(=O)[C@@H]2CCCCN2S(=O)(=O)c2ccc3ncsc3c2)c2cccc(OCCN3CCOCC3)c2)cc1OC | > 50 | > 50 | > 50 | – | – | –
COc1ccc(CC[C@@H](OC(=O)[C@@H]2CCCCN2S(=O)(=O)c2cc(Cl)c(O)c(Cl)c2)c2cccc(OCCN3CCOCC3)c2)cc1OC | – | – | 0.115 | – | – | –
COc1ccc(CC[C@@H](OC(=O)[C@@H]2CCCCN2S(=O)(=O)c2cc(Cl)c(OC)c(Cl)c2)c2cccc(OCCN3CCOCC3)c2)cc1OC | > 50 | > 50 | > 50 | – | – | –
COc1ccc(CC[C@@H](OC(=O)[C@@H]2CCCCN2S(=O)(=O)c2ccc3[nH]c(=O)sc3c2)c2cccc(OCCN3CCOCC3)c2)cc1OC | 3.41 | 2.03 | 0.003 | – | – | –
COc1ccc(CC[C@@H](OC(=O)[C@@H]2CCCCN2S(=O)(=O)c2cc(Cl)c(NC(C)=O)c(Cl)c2)c2cccc(OCCN3CCOCC3)c2)cc1OC | – | – | 0.45 | – | – | –
COc1ccc(CC[C@@H](NC(=O)[C@@H]2CCCCN2S(=O)(=O)c2cc(Cl)c(O)c(Cl)c2)c2cccc(OCC(=O)O)c2)cc1OC | > 100 | > 100 | > 100 | – | – | –
COc1ccc(CC[C@@H](NC(=O)[C@@H]2CCCCN2S(=O)(=O)c2ccc3[nH]c(=O)sc3c2)c2cccc(OCC(=O)O)c2)cc1OC | > 100 | > 100 | 1.4 | – | – | –
O=C(OC(CCCc1cccnc1)CCCc1cccnc1)[C@@H]1CCCCN1S(=O)(=O)c1cc(Cl)c(O)c(Cl)c1 | 15.1 | 9.69 | 0.87 | – | – | –
CCC(C)(C)C(=O)C(=O)N1CCCC[C@H]1C(=O)O[C@H](CCc1ccc(OC)c(OC)c1)c1cccc(OCC(=O)O)c1 | 9.37 | 6.3 | 0.114 | – | – | –
